From ChEMBL document CHEMBL5465560, “Selectivity Literature for EUbOPEN Chemogenomic Library” (2024)
Each block holds one compound with its values, some of them ahead of it.

Tests used:
[1] = molecular target: Casein kinase I isoform alpha (Homo sapiens, UniProt P48729); assay: Selectivity interaction (Kinase panel (Reaction Biology)) EUB0001205a CSNK1A1; conditions: at 1 µM
[2] = molecular target: Casein kinase I isoform alpha-like (Homo sapiens, UniProt Q8N752); assay: Selectivity interaction (Tracer competition assays (Reaction Biology) ) EUB0001205a CSNK1A1L
[3] = molecular target: T1, Casein kinase I isoform delta (Homo sapiens, UniProt P48730); assay: Selectivity interaction (Kinase panel (Reaction Biology)) EUB0001205a CSNK1D; conditions: at 1 µM
[4] = molecular target: T1, Casein kinase I isoform delta; assay: Selectivity interaction (Western Blot assay (autophosphorylation of CSNK1D in HEK293T-REx cells)) EUB0001205a CSNK1D; assay type: cell-based, T-REx-293
[5] = molecular target: T2, Casein kinase I isoform epsilon (Homo sapiens, UniProt P49674); assay: Selectivity interaction (Kinase panel (Reaction Biology)) EUB0001205a CSNK1E; conditions: at 1 µM
[6] = molecular target: T2, Casein kinase I isoform epsilon; assay: Selectivity interaction (Western Blot assay (autophosphorylation of CSNK1E in HEK293T-REx cells)) EUB0001205a CSNK1E; assay type: cell-based, T-REx-293
[7] = molecular target: TRAF2 and NCK-interacting protein kinase (Homo sapiens) (UniProt Q9UKE5); assay: Selectivity interaction (Kinase panel (Reaction Biology)) EUB0001205a TNIK; conditions: at 1 µM
[8] = molecular target: T3, Tyrosine-protein kinase ZAP-70 (Homo sapiens) (UniProt P43403); assay: Selectivity interaction (Kinase panel (Reaction Biology)) EUB0001205a ZAP70; conditions: at 1 µM
T3 sequence (whole entry): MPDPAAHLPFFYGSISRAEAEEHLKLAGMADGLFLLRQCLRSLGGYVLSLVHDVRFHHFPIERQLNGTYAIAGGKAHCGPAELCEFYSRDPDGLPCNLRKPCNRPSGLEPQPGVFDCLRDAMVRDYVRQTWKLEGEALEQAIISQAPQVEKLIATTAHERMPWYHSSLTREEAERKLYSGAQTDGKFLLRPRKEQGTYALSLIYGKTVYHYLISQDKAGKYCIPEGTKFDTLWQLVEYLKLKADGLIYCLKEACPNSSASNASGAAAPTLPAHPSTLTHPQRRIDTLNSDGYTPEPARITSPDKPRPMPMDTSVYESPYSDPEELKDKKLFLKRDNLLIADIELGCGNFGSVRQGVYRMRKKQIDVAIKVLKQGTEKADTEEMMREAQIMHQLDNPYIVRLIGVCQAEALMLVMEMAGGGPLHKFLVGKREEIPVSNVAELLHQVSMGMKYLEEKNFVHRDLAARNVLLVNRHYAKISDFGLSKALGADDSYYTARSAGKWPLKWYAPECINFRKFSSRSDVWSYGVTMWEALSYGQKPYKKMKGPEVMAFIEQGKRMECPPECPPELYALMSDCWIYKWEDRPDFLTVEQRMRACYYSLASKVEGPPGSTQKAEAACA

[9] = molecular target: Dual specificity protein kinase CLK1 (Homo sapiens, UniProt P49759)
[10] = molecular target: Dual specificity protein kinase CLK2 (Homo sapiens, UniProt P49760)
[11] = molecular target: Dual specificity protein kinase CLK3 (Homo sapiens, UniProt P49761)
[12] = molecular target: Dual specificity protein kinase CLK4 (Homo sapiens, UniProt Q9HAZ1)
Sequence of Dual specificity protein kinase CLK4 (Q9HAZ1 whole entry): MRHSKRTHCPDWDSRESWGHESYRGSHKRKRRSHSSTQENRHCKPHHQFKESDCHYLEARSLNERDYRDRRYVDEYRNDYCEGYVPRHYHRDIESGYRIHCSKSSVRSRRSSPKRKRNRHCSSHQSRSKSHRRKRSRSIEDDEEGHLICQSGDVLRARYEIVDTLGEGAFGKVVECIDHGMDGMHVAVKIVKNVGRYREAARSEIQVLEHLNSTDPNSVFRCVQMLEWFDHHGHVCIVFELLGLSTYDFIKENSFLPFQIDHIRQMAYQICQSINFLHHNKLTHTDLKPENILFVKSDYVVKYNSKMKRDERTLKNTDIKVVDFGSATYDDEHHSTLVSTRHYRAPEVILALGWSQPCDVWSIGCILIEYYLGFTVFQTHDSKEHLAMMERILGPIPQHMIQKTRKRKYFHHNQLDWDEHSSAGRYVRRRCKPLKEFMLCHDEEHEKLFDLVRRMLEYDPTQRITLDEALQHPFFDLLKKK

[13] = molecular target: Dual specificity tyrosine-phosphorylation-regulated kinase 1A (Homo sapiens, UniProt Q13627)
[14] = molecular target: Dual specificity tyrosine-phosphorylation-regulated kinase 1B (Homo sapiens, UniProt Q9Y463)
[15] = molecular target: T4, Dual specificity tyrosine-phosphorylation-regulated kinase 2 (Homo sapiens, UniProt Q92630)
T4 sequence (Q92630 whole entry): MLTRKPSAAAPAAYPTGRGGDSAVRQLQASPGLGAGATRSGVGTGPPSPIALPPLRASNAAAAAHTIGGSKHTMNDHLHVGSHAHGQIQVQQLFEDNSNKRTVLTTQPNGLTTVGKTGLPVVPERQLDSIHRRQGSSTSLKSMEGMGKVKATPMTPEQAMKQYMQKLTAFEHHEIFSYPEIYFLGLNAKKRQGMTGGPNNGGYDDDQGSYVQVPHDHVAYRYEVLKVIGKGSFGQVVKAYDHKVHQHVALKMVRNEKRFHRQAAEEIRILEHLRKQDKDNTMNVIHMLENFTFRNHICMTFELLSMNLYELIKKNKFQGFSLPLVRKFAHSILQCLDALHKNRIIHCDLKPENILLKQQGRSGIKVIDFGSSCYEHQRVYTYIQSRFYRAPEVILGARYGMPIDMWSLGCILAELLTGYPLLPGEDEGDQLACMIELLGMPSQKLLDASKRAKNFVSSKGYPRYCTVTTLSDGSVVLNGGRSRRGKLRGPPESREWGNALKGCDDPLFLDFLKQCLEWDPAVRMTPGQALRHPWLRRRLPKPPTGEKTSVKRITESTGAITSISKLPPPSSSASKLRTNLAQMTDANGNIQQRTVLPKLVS

[16] = molecular target: T5, Dual specificity tyrosine-phosphorylation-regulated kinase 3 (Homo sapiens, UniProt O43781)
T5 sequence (O43781 whole entry): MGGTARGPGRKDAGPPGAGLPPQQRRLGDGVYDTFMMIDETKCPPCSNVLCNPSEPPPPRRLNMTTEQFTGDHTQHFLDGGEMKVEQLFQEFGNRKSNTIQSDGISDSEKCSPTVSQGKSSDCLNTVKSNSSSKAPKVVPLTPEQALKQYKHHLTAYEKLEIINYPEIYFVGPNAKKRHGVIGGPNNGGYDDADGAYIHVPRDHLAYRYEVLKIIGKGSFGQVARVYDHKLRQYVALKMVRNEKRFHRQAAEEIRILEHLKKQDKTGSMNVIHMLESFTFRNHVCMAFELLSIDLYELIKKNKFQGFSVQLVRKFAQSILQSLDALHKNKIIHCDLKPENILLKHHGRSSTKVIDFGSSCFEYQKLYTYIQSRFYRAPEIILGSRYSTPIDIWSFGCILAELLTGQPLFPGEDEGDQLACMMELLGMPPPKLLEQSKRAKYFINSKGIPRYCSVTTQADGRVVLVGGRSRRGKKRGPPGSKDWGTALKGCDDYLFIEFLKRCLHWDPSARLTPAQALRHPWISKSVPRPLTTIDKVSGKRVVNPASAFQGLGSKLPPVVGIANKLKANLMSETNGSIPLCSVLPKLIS

[17] = molecular target: T6, SRSF protein kinase 1 (Homo sapiens, UniProt Q96SB4); conditions: at 1 µM
T6 sequence (Q96SB4 whole entry): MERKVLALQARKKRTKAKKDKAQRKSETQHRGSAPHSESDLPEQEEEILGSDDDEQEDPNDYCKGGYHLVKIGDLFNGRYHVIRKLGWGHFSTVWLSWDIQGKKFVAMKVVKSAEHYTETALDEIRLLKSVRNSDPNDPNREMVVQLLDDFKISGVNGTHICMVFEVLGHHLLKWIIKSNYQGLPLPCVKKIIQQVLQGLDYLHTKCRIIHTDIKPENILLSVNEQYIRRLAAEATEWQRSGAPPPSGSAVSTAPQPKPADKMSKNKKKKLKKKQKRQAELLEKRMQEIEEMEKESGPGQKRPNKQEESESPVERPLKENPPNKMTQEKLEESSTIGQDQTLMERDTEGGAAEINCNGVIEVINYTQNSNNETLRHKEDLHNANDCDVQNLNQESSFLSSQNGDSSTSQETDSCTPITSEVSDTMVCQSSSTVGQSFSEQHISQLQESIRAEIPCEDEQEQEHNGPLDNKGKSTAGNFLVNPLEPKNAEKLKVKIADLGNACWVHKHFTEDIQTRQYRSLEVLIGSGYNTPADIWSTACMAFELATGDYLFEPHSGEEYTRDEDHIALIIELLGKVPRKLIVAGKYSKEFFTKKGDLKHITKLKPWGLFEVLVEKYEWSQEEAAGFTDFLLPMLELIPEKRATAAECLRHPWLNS

[18] = molecular target: T6, SRSF protein kinase 1
[19] = molecular target: SRSF protein kinase 2 (Homo sapiens) (UniProt P78362)
[20] = molecular target: ATPase family AAA domain-containing protein 2 (Homo sapiens, UniProt Q6PL18); assay: Selectivity interaction (BROMOscan) EUB0001074a ATAD2
[21] = molecular target: ATPase family AAA domain-containing protein 2B (Homo sapiens, UniProt Q9ULI0); assay: Selectivity interaction (BROMOscan) EUB0001074a ATAD2B
[22] = molecular target: Bromodomain adjacent to zinc finger domain protein 2A (Homo sapiens, UniProt Q9UIF9); assay: Selectivity interaction (BROMOscan) EUB0001074a BAZ2A
[23] = molecular target: T7, Bromodomain-containing protein 4 (Homo sapiens, UniProt O60885); assay: Selectivity interaction (BROMOscan) EUB0001074a BRD4
[24] = molecular target: T7, Bromodomain-containing protein 4; assay: Selectivity interaction (AlphaScreen) EUB0001074a BRD4
[25] = molecular target: Bromodomain-containing protein 7 (Homo sapiens, UniProt Q9NPI1); assay: Selectivity interaction (BROMOscan) EUB0001074a BRD7
Sequence of Bromodomain-containing protein 7 (Q9NPI1 whole entry): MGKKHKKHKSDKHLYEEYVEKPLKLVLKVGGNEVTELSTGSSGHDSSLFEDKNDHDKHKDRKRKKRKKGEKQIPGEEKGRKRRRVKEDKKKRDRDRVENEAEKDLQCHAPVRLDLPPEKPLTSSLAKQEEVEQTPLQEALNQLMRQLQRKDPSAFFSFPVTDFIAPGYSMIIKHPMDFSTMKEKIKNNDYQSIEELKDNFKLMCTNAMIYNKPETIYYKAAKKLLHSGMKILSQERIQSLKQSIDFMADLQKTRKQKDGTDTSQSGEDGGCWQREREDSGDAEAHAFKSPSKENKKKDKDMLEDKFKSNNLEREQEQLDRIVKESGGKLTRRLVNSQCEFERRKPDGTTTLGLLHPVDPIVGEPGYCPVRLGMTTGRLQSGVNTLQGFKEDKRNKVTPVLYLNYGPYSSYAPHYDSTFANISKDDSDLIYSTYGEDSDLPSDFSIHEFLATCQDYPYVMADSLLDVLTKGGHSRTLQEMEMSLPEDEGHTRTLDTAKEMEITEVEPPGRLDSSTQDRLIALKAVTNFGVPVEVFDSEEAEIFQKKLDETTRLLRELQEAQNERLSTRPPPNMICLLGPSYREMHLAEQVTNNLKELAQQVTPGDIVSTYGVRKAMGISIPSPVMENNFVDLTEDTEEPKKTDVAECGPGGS

[26] = molecular target: T8, Bromodomain-containing protein 9 (Homo sapiens, UniProt Q9H8M2); assay: Selectivity interaction (BROMOscan) EUB0001074a BRD9
T8 sequence (Q9H8M2 whole entry): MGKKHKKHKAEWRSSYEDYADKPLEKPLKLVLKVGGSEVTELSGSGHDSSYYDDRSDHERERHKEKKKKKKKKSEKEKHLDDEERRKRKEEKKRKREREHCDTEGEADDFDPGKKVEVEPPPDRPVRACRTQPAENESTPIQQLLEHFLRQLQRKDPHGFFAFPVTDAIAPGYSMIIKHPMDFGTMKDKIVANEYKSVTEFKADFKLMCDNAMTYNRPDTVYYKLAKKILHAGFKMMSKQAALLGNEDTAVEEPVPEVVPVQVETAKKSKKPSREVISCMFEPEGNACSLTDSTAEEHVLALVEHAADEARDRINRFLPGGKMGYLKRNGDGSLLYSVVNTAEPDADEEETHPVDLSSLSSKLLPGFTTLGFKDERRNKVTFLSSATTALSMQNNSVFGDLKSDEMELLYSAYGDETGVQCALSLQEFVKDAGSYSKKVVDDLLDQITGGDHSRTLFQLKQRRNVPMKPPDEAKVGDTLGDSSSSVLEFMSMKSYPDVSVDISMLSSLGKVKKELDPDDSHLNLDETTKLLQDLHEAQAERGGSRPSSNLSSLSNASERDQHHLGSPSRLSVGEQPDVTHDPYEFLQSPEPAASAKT

[27] = molecular target: T8, Bromodomain-containing protein 9; assay: Selectivity interaction (AlphaScreen) EUB0001074a BRD9
[28] = molecular target: Peregrin (Homo sapiens, UniProt P55201); assay: Selectivity interaction (AlphaScreen) EUB0001074a BRPF1
Sequence of Peregrin (P55201 whole entry): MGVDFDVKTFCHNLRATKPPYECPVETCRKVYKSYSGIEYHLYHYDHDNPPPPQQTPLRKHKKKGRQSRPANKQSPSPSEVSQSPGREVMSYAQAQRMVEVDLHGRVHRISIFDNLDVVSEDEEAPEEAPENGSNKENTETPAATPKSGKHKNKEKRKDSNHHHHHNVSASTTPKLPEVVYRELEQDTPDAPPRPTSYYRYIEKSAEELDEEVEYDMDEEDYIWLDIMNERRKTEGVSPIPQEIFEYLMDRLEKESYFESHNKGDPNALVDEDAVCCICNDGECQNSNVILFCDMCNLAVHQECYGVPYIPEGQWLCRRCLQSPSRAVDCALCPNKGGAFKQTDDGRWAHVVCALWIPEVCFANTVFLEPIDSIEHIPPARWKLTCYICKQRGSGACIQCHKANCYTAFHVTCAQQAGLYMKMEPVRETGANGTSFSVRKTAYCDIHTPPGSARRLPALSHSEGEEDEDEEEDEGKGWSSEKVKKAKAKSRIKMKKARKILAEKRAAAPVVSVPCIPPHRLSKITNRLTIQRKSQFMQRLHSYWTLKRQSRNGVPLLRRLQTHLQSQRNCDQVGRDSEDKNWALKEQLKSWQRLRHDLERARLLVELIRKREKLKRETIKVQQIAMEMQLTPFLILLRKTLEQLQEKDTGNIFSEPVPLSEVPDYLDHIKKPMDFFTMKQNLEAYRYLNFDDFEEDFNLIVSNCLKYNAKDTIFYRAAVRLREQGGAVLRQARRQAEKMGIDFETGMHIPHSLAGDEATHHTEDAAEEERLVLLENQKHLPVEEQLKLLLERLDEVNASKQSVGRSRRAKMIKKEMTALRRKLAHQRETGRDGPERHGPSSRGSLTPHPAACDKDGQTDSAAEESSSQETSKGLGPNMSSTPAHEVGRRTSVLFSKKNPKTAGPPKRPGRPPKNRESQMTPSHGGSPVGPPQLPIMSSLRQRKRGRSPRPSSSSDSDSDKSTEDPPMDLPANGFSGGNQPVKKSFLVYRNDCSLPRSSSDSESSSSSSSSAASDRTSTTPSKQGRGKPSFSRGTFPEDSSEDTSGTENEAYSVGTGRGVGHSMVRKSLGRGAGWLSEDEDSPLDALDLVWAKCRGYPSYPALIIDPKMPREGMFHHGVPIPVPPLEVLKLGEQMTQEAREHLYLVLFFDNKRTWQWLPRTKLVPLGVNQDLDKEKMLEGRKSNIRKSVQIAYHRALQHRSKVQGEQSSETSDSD

[29] = molecular target: T9, Chromatin remodeling regulator CECR2 (Homo sapiens, UniProt Q9BXF3); assay: Selectivity interaction (BROMOscan) EUB0001074a CECR2
T9 sequence (Q9BXF3 whole entry): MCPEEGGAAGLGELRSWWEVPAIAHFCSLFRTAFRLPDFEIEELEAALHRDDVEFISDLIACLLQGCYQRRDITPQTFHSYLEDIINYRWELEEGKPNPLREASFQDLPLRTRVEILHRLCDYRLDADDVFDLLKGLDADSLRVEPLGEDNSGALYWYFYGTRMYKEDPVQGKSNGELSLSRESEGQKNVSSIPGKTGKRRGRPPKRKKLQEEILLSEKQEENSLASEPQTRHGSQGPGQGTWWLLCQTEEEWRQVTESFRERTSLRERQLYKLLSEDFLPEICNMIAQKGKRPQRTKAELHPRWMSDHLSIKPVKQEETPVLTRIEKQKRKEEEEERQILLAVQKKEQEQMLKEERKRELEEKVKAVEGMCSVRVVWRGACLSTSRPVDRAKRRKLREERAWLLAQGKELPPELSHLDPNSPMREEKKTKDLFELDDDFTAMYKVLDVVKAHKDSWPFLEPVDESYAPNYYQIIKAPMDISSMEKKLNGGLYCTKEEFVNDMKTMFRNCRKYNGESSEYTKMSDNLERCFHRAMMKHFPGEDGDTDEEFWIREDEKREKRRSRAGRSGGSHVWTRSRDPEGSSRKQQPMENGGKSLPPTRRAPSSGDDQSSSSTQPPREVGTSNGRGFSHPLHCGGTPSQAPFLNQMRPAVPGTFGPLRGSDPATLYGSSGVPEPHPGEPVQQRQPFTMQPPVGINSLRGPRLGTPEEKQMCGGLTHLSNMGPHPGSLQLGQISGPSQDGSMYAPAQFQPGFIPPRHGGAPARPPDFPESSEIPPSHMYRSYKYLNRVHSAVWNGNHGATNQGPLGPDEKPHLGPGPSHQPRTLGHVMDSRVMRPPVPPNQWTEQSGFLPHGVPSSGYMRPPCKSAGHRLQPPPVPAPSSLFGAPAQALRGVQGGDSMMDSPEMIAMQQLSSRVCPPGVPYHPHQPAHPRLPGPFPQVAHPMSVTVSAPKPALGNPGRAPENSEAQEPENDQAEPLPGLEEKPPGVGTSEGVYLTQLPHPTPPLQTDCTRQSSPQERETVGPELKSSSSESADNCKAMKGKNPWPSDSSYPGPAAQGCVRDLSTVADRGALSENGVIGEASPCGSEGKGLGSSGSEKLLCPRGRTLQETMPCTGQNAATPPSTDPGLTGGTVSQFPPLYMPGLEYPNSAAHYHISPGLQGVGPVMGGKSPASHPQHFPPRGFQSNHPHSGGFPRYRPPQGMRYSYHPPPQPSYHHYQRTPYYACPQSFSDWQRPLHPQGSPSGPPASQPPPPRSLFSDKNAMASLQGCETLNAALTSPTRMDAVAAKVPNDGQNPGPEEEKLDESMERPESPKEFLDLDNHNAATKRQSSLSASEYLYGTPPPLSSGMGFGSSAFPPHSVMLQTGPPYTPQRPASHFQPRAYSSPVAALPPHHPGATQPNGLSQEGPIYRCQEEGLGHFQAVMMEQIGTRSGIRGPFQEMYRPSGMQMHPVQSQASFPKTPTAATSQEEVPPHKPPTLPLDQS

[30] = molecular target: T9, Chromatin remodeling regulator CECR2; assay: Selectivity interaction (AlphaScreen) EUB0001074a CECR2
[31] = molecular target: CREB-binding protein (Homo sapiens, UniProt Q92793); assay: Selectivity interaction (BROMOscan) EUB0001074a CREBBP
[32] = molecular target: Nucleosome-remodeling factor subunit BPTF (Homo sapiens, UniProt Q12830); assay: Selectivity interaction (AlphaScreen) EUB0001074a BPTF
[33] = molecular target: Histone acetyltransferase KAT2B (Homo sapiens, UniProt Q92831); assay: Selectivity interaction (BROMOscan) EUB0001074a KAT2B
[34] = molecular target: SWI/SNF-related matrix-associated actin-dependent regulator of chromatin subfamily A member 2 (Homo sapiens, UniProt P51531); assay: Selectivity interaction (BROMOscan) EUB0001074a SMARCA2
[35] = molecular target: TATA box-binding protein-associated factor RNA polymerase I subunit A (Homo sapiens, UniProt Q15573); assay: Selectivity interaction (AlphaScreen) EUB0001074a TAF1A
Sequence of TATA box-binding protein-associated factor RNA polymerase I subunit A (Q15573 whole entry): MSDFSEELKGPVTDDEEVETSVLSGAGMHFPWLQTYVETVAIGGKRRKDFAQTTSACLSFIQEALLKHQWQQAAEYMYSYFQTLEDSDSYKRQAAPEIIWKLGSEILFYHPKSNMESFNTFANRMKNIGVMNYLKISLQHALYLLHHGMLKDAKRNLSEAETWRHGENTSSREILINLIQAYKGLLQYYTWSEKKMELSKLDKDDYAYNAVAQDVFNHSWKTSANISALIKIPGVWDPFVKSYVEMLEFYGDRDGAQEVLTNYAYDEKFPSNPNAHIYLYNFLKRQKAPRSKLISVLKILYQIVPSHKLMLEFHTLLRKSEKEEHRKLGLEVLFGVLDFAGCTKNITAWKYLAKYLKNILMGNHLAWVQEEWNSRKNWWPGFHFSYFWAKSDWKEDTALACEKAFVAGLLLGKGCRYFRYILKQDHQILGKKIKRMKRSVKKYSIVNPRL

[36] = molecular target: E3 ubiquitin-protein ligase TRIM33 (Homo sapiens, UniProt Q9UPN9); assay: Selectivity interaction (BROMOscan) EUB0001074a TRIM33

% of inhibition [1]: 6%
IC50 [2]: 520 nM
% of inhibition [3]: -6%
IC50 [4]: 500 nM
% of inhibition [5]: 0%
IC50 [6]: 12.4 µM
% of inhibition [7]: 43%
% of inhibition [8]: 71%
Structure (SMILES): CN1CCC(F)(Cn2cnc(-c3ccc(F)cn3)c2-c2ccnc3[nH]ccc23)CC1

IC50 [9]: > 10 µM
IC50 [10]: > 10 µM
IC50 [11]: > 10 µM
IC50 [12]: > 10 µM
IC50 [13]: > 10 µM
IC50 [14]: > 10 µM
IC50 [15]: > 10 µM
IC50 [16]: > 10 µM
% of control [17]: 8.76%
dTM [18]: 9.1 K
dTM [19]: 4 K
Structure (SMILES): CN(c1ncccc1CNc1ccnc(-c2nc3c(F)c(Cl)ccc3[nH]2)n1)S(C)(=O)=O

IC50 [20]: > 100 µM
IC50 [21]: > 100 µM
IC50 [22]: > 100 µM
IC50 [23]: > 100 µM
IC50 [24]: > 200 µM
IC50 [25]: > 100 µM
IC50 [26]: > 100 µM
IC50 [27]: > 200 µM
IC50 [28]: > 200 µM
IC50 [29]: > 100 µM
IC50 [30]: > 200 µM
IC50 [31]: > 100 µM
IC50 [32]: > 200 µM
IC50 [33]: > 100 µM
IC50 [34]: > 77 µM
IC50 [35]: > 200 µM
IC50 [36]: > 100 µM
Structure (SMILES): CCc1cc2cc(NS(=O)(=O)c3ccc(C#N)cc3)ccc2n(CC)c1=O
